Assays:
KRAS(G13D) = target: T1, KRAS(G13D) (Homo sapiens, UniProt P01116, G13D); test: Yeast display binding titration, KRAS(G13D); details: GTPγS and GDP bound states
T1 construct: KRAS4B residues 1-174 containing G12C, G12V, G12D, G13D, Q61L, WT; made in house; host or cells: E. coli BL21(DE3) with pBirA
Method: Nucleotide exchange of RAS. Purified RAS proteins used in binding experiment and crystallization were prepared by diluting stock protein (typically containing 20-250 μM RAS) 25 times with 20 mM Tris-Cl buffer pH 7.5 containing 5 mM EDTA, 0.1 mM DTT and 1 mM final concentration of a nucleotide (GDP or GTPγS). Samples were incubated at 30° C. for 30 minutes. MgCl2 was then added to the sample at a final concentration of 20 mM and the solution was further incubated on ice for at least 5 minutes prior to use.
Monobody development. General procedures for the development of monobodies against purified protein targets have been described previously. After four rounds of phage display library selection using biotinylated KRAS(G12C) at concentrations of 100 nM, 100 nM, 50 nM and 50 nM, the genes encoding monobodies from the enriched phage pool were transferred to a yeast display vector, which was used to construct yeast-display libraries. The yeast display libraries were sorted using a Bio-Rad S3e fluorescence-activated cell sorter or a […] II cell sorter (BD Biosciences). […] Single clones were then screened for selective binding to RAS mutants. The expression of monobodies on the surface of yeast cells were detected using mouse anti-VS and anti-mouse IgG-FITC conjugate. Target binding was detected with neutravidin Dylight650. Yeast cells were analyzed using an iQue flow cytometer (Sartorius). […]

PATU8902 tumors = test: Mouse xenograft model, PATU8902; assay type: in vivo; details: subcutaneous PATU8902 in nude mice; dox-induced expression after tumor size exceeded 100 mm^3
Method: Mouse xenograft experiments. Animal experiments were approved by NYU Langone Institutional Animal Care and Use Committee (IACUC, protocol 170602). PATU8902 or H23 cells expressing monobody under a dox-inducible promotor (5×10^6) were subcutaneously injected into athymic nude mice (Charles River). Once the average tumor size exceeded 100 mm^3, the mice were given food containing doxycycline (Envigo; TD.01306). Tumor sizes were measured using a digital caliper thrice a week along with body weight to ensure that mice were healthy through the duration of doxycycline treatment.

binding (KRAS(G13D)): no binding
Sequence: VSSVPTKLEVVAATPTSLLISWDAPAVTVFFYVITYGETGHGVGAFQAFKVPGSKSTATISGLKPGVDYTITVYARGYSKQGPYKPSPISINYRT [12VC1]
tumor growth (PATU8902 tumors): significantly reduced tumor growth

— patent publication US12049483B2, “Selective and noncovalent inhibitors of oncogenic RAS mutants” (New York University, priority 2020, dated 2024)
